The data set is described as follows: solvent given as SMILES.

This note sets out measurements from the Deep4Chem optical property database.

“And” between values parts separate entries of the source, which are not always exact repeats. Identical values can stand only once.

The compound `N#Cc1c(-n2c3ccc(Cl)cc3c3cc(Cl)ccc32)c(C#N)c(-n2c3ccc(Cl)cc3c3cc(Cl)ccc32)c(-n2c3ccc(Cl)cc3c3cc(Cl)ccc32)c1-n1c2ccc(Cl)cc2c2cc(Cl)ccc21` came in with a fluorescence lifetime (in Cc1ccccc1) of 0.4 ns.

Under “in ClC(Cl)Cl”, `CCCCCCN1C(=O)c2cccc3c(-c4scc5c4OCCO5)ccc(c23)C1=O` yielded a fluorescence lifetime of 3.51 ns.

Consider `N#Cc1c(-n2c3ccc(Br)cc3c3cc(Br)ccc32)c(C#N)c(-n2c3ccc(Br)cc3c3cc(Br)ccc32)c(-n2c3ccc(Br)cc3c3cc(Br)ccc32)c1-n1c2ccc(Br)cc2c2cc(Br)ccc21`, for which, for the setting “in Cc1ccccc1”, the fluorescence lifetime was found to be 0.4 ns.

With `Fc1ccc(N(c2ccc(F)cc2)c2ccc3c4cccc5c(N(c6ccc(F)cc6)c6ccc(F)cc6)ccc(c6cccc2c63)c54)cc1`, where the note is “in ClCCl”, the fluorescence lifetime was determined as 4.26 ns.

As to `COc1ccc2c(=O)c3c([nH]c2c1)-c1ccccc1NC3(C)C`, the fluorescence lifetime by setting is: (in C1CCOC1) 8.25 ns; (in CC#N) 9.16 ns; (in CCCCO) 10.2 ns; (in CCCO) 10.1 ns; (in CCO) 9.74 ns; (in CCOC(C)=O) 8.04 ns. Further, the fluorescence lifetime runs as follows: (in CN(C)C=O) 10.5 ns; (in CO) 9.35 ns; (in CS(C)=O) 11.4 ns; (in Cc1ccccc1) 7.24 ns; (in ClC(Cl)(Cl)Cl) 5.08 ns; (in ClCCl) 9.46 ns. Further, the fluorescence lifetime (in O) turned out to be 7.42 ns and the fluorescence lifetime (in c1ccccc1) was found to be 7.52 ns.

For the setting “in c1cc(-n2c3ccccc3c3ccccc32)cc(-n2c3ccccc3c3ccccc32)c1”, `c1ccc(-c2nc(-c3ccccc3)nc(-c3ccc(-c4ccc(N5c6ccccc6[Si](c6ccccc6)(c6ccccc6)c6ccccc65)cc4)cc3)n2)cc1` had a fluorescence lifetime of 6 ns.

For the compound `COc1ccc2c(c1)c(C#N)cc1c(OC)c(OC)c3cc(C#N)c4cc(OC)ccc4c3c12`, the fluorescence lifetime (in ClC(Cl)Cl) came out at 6 ns.

For `CC(C)(C)c1ccc2c(c1)c1cc(C(C)(C)C)ccc1n2-c1cc(N2c3ccccc3C(c3ccccc3)(c3ccccc3)c3ccccc32)cc(-n2c3ccc(C(C)(C)C)cc3c3cc(C(C)(C)C)ccc32)c1C#N`, the fluorescence lifetime (in Cc1ccccc1) is 14.2 ns.

For `C[Si](C)(C)C#Cc1ccc2c3cccc4cccc(c5cccc1c52)c43`, the fluorescence lifetime (in C1CCCCC1) amounted to 4.2 ns.

Turning to `COc1ccc(C2=Nc3cccc4[n+]3[B-](F)(O2)OC(c2ccc(OC)cc2)=N4)cc1`, the fluorescence lifetime (in ClCCl) is 1.8 ns.

For the compound `COc1ccc(N(c2ccc(OC)cc2)c2ccc(-c3ccc4c(c3)C(=O)c3ccccc3C4=O)cc2)cc1`, the fluorescence lifetime by setting is: (in CCCCCC) 7.04 ns; (in Cc1ccccc1) 1.09 ns; (in ClC(Cl)(Cl)Cl) 5.94 ns.

In turn, `O=C1c2ccccc2C(=O)c2cc(-c3ccc(N(c4ccccc4)c4ccccc4)cc3)ccc21` had a fluorescence lifetime (in CCCCCC) of 5.51 ns; a fluorescence lifetime (in CCOC(C)=O) of 0.15 ns; a fluorescence lifetime (in CCOCC) of 2.81 ns; a fluorescence lifetime (in Cc1ccccc1) of 6.79 ns; a fluorescence lifetime (in ClC(Cl)(Cl)Cl) of 8.82 ns.

With `Cc1cc(C)c2c(c1)c1cc(C)cc(C)c1n2-c1ccc2c(c1)B(c1c(C(C)C)cc(C(C)C)cc1C(C)C)c1cc(-n3c4c(C)cc(C)cc4c4cc(C)cc(C)c43)ccc1N2c1ccccc1`, the fluorescence lifetime (in c1cc(-c2cccc(-n3c4ccccc4c4ccccc43)c2)cc(-n2c3ccccc3c3ccccc32)c1) was 9 ns.

For `C(=C\c1nc(-c2ccccc2)c2ccccn12)/c1nc(-c2ccccc2)c2ccccn12`, the fluorescence lifetime (in CC#N) was found to be 1 ns.

As to `C[SiH](C)c1cccc2ccccc12`, the fluorescence lifetime (in C1CCCCC1) worked out at 61 ns.

As for `N#Cc1ccc(C#Cc2ccc(C#Cc3ccc(C#Cc4ccccc4C#N)cc3C#N)cc2C#N)cc1`, the fluorescence lifetime by setting is: (in C1CCOC1) 1.23 ns; (in CC#N) 1.79 ns; (in CN(C)C=O) 1.61 ns; (in ClC(Cl)Cl) 1.14 ns; (in c1ccccc1) 1.65 ns.

Compound `CC(=O)c1ccc(-c2nc3ccc(N(C)C)cc3s2)cc1` came in with a fluorescence lifetime (in C1CCCCC1) of 2.2 ns.

Regarding `CC1=CC(C)=[N+]2C1=Cc1ccc(CCC(=O)ON3C(=O)CCC3=O)n1[B-]2(F)F`, the fluorescence lifetime (in CO) stood at 5.7 ns.

As for `Nc1ccc(/C=C/c2cccnc2)cc1`, the fluorescence lifetime reads like this: (in CC#N) 0.18 ns; (in CCCCCC) 0.22 ns.

Compound `CCOC(=O)c1ccc2c(c1)[nH]c1c3ccc(C(=O)OCC)cc3[nH]c21` displayed a fluorescence lifetime (in CCCO) of 4.75 ns.

As for `CN(C)c1ccc(/C=C/c2nc3c(ccc4ccccc43)s2)cc1`, the fluorescence lifetime by setting is: (in C1CCCCC1) 0.1 ns and 0.13 ns; (in CC#N) 0.1 ns and 0.13 ns.

On to `c1ccc2c(c1)OP1(=NP(Oc3ccc4ccc5cccc6ccc3c4c56)(Oc3ccc4ccc5cccc6ccc3c4c56)=NP(Oc3ccc4ccc5cccc6ccc3c4c56)(Oc3ccc4ccc5cccc6ccc3c4c56)=N1)Oc1ccccc1-2`, for which, under “in ClCCl”, the fluorescence lifetime is 1.23 ns.

In the case of `CCCC1(CCC)c2cc(C=C(C#Cc3ccccc3)C#Cc3ccccc3)ccc2-c2ccc(C=C(C#Cc3ccccc3)C#Cc3ccccc3)cc21`, for the setting “in ClC(Cl)Cl”, the fluorescence lifetime is 0.6 ns.

As for `COC(=O)C(Cc1ccc2oc(-c3ccc(N(C)C)cc3)nc2c1)NC(=O)OC(C)(C)C` (stereo not given), the fluorescence lifetime is, setting by setting: (in C1CCCCC1) 1.02 ns; (in C1CCOC1) 1.21 ns; (in C1COCCO1) 1.21 ns; (in CC1CCCO1) 1.15 ns; (in CC1COC(=O)O1) 1.41 ns; (in CC#N) 1.32 ns. This compound had a fluorescence lifetime (in CC(C)=O) of 1.26 ns; a fluorescence lifetime (in CC(C)CC(C)(C)C) of 1.02 ns; a fluorescence lifetime (in CC(C)CO) of 1.29 ns; a fluorescence lifetime (in CC(C)O) of 1.3 ns; a fluorescence lifetime (in CC(C)OC(C)C) of 1.2 ns; a fluorescence lifetime (in CC(O)CO) of 1.32 ns. Besides, the fluorescence lifetime is 1 ns (in CCC(C)CC); 1.12 ns (in CCCCC); 1.04 ns (in CCCCCC); 1.08 ns (in CCCCCCCCC); 1.09 ns (in CCCCCCCCCC); 1.3 ns (in CCCCCCCO). Also, the fluorescence lifetime is, setting by setting: (in CCCCCCO) 1.32 ns; (in CCCCCO) 1.25 ns; (in CCCCO) 1.29 ns; (in CCO) 1.35 ns; (in CCOC(C)=O) 1.19 ns; (in CCOCC) 1.24 ns. Also, the fluorescence lifetime runs as follows: (in CN(C)C=O) 1.28 ns; (in CO) 1.26 ns; (in COCCOC) 0.88 ns; (in CS(C)=O) 1.26 ns; (in Cc1ccccc1) 1.04 ns; (in Cc1ccccc1C) 1.07 ns. For the same compound, the fluorescence lifetime is, setting by setting: (in ClC(Cl)Cl) 0.79 ns; (in ClCCl) 1.23 ns; (in NC=O) 1.14 ns; (in OC1CCCCC1) 1.28 ns; (in OCCO) 1.13 ns; (in c1ccccc1) 1.08 ns.

In turn, `Nc1ccc2ccc([O-])cc2c1` yielded a fluorescence lifetime (in O) of 2.27 ns.

`CCOC(=O)c1ccccc1-c1c2ccc(=[N+](CC)CC)cc-2oc2c1c(=O)oc1cc(N(CC)CC)ccc12`: the fluorescence lifetime is 2.12 ns (in CCO), 4.31 ns (in ClC(Cl)Cl) and 0.27 ns (in O).

As for `CC1(C)c2cccc(-c3nc(-c4ccccc4)nc(-c4ccccc4)n3)c2Oc2c(N3c4ccccc4Sc4ccccc43)cccc21`, the fluorescence lifetime (in Cc1ccccc1) amounted to 2.8 ns.

Take `CCC(CC)COC1=CC2=C3c4cc(OCC(CC)CC)c(-c5cccs5)n4[B-](F)(F)[n+]4nnn(c43)[B-](F)(F)[N+]2=C1c1cccs1`: the fluorescence lifetime is, setting by setting: (in C1CCOC1) 0.5 ns; (in ClCCl) 0.5 ns.

`COc1ccc(-c2c3ccccc3c(C#Cc3ccccc3)c3cc4cc(C)sc4cc23)cc1` had a fluorescence lifetime (in ClCCl) of 7.1 ns.

Where the note is “in O”, `O=C(O)c1cccc2c(=O)c3ccccc3[nH]c12` registered a fluorescence lifetime of 3.1 ns.

For `CCN(CC)c1ccc2cc(-c3nc4ccccc4n3C)c(=O)oc2c1`, under “in CC#N”, the fluorescence lifetime came out at 2.8 ns.

For the compound `c1cc2ccc3cccc4c(-c5cc(-c6nccs6)nc(-c6nccs6)c5)cc(c1)c2c34`, the fluorescence lifetime is, setting by setting: (in CC#N) 2.9 ns; (in CCCCCC) 3.24 ns; (in CO) 3.2 ns; (in ClC(Cl)Cl) 2.41 ns.

Turning to `N#Cc1ccc(-c2cc(-c3ccc(N4CCCC4)cc3)nc(-c3ccccc3)n2)cc1`, the fluorescence lifetime (in ClC(Cl)Cl) is 3.3 ns.

`CCN(CC)c1cc2oc(=O)cc(C)c2cc1C`: the fluorescence lifetime (in CCO) was determined as 2.56 ns.

Compound `CCOC(=O)CCCCCn1c2ccccc2c(=O)c2cc(N)ccc21` registered a fluorescence lifetime (in O) of 10.9 ns.

On to `CN(C)c1ccc(-c2ccc(C#N)s2)s1`, for which, under “in CCO”, the fluorescence lifetime is 2.72 ns.

`c1ccc(N(c2ccccc2)c2ccc(-c3ccc4c(c3)C3(c5ccccc5Sc5ccccc53)c3cc(-c5ccc(N(c6ccccc6)c6ccccc6)cc5)ccc3-4)cc2)cc1` displayed a fluorescence lifetime (in ClCCl) of 1.2 ns.

In turn, `c1ccc(-c2nnc(-c3ccc(-n4c5ccccc5c5ccccc54)cc3)o2)cc1` gave a fluorescence lifetime (in CCO) of 2.01 ns.

Regarding `O=C1O[B-]2(OC1=O)OC(c1ccccc1)=CC(c1ccc3ccccc3c1)=[O+]2`, the fluorescence lifetime worked out at 5.4 ns (in CC#N) and 1.6 ns (in ClC(Cl)(Cl)Cl).

For `Fc1c(-c2nnc(-c3ccccc3)o2)c(-n2c3ccccc3c3ccccc32)c(F)c(-n2c3ccccc3c3ccccc32)c1-n1c2ccccc2c2ccccc21`, the fluorescence lifetime (in Cc1ccccc1) was 7.7 ns.

For the compound `COc1ccc(-c2csc(/C(C#N)=C/c3ccc(C#N)cc3)n2)cc1`, where the note is “in CC#N”, the fluorescence lifetime was found to be 1.43 ns.

For `c1ccc(N2N=C(c3ccc4ccc5cccc6ccc3c4c56)CC2c2ccc3ccc4cccc5ccc2c3c45)cc1` (stereo not given), the fluorescence lifetime (in ClCCl) was found to be 2.67 ns.

The compound `C[n+]1ccn(CCCCc2ccc3c(c2)c2ccccc2n3-c2cc(C#N)c(C#N)cc2F)c1` displayed a fluorescence lifetime (in CC#N) of 3.26 ns.

On to `CC1(C)c2cc(C#N)ccc2-c2ccc(N3c4ccccc4Oc4ccccc43)cc21`, for which the fluorescence lifetime is, setting by setting: (in C1CCCCC1) 1.89 ns; (in C1CCOC1) 9.74 ns; (in CC#N) 1.23 ns; (in Cc1ccccc1) 4.94 ns; (in ClC(Cl)Cl) 11.6 ns.
